The source of these data is ChEMBL document CHEMBL5465560, “Selectivity Literature for EUbOPEN Chemogenomic Library” (2024).

The target in experiment [1] is Glycogen synthase kinase-3 alpha (Homo sapiens, UniProt P49840). The note with it: at 10 µM.
Experiment [2] deals with T1, Cyclin-dependent kinase-like 5 (Homo sapiens) (UniProt O76039).
T1 sequence (whole entry): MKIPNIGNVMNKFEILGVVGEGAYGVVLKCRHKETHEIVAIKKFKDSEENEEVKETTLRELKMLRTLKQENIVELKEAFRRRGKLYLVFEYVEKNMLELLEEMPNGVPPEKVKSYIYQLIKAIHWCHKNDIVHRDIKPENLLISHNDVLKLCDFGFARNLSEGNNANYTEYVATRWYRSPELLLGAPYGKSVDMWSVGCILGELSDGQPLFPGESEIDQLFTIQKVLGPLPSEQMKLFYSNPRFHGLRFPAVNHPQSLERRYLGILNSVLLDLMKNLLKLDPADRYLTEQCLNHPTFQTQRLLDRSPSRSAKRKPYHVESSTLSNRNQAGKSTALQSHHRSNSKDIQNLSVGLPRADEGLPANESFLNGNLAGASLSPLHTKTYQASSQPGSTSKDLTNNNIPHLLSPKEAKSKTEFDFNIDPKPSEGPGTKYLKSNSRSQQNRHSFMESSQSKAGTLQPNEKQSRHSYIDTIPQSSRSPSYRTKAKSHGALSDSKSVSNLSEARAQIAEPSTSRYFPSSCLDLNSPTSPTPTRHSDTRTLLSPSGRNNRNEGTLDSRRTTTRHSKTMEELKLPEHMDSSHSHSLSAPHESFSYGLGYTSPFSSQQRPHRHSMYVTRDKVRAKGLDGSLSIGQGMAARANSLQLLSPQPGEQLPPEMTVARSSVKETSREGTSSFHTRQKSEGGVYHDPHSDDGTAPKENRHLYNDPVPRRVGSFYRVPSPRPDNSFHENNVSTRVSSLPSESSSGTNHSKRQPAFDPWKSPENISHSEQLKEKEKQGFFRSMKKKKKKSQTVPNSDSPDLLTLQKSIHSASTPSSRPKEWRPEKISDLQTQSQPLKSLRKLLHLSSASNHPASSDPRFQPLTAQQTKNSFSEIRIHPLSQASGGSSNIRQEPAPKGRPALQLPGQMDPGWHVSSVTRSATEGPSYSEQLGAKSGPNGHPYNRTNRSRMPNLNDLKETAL
Briefly: Selectivity interaction (KinomeScan (DiscoverX)) EUB0000045b CDKL5.

The target in experiment [3] is T2, Cyclin-G-associated kinase (Homo sapiens) (UniProt O14976).
T2 sequence (whole entry): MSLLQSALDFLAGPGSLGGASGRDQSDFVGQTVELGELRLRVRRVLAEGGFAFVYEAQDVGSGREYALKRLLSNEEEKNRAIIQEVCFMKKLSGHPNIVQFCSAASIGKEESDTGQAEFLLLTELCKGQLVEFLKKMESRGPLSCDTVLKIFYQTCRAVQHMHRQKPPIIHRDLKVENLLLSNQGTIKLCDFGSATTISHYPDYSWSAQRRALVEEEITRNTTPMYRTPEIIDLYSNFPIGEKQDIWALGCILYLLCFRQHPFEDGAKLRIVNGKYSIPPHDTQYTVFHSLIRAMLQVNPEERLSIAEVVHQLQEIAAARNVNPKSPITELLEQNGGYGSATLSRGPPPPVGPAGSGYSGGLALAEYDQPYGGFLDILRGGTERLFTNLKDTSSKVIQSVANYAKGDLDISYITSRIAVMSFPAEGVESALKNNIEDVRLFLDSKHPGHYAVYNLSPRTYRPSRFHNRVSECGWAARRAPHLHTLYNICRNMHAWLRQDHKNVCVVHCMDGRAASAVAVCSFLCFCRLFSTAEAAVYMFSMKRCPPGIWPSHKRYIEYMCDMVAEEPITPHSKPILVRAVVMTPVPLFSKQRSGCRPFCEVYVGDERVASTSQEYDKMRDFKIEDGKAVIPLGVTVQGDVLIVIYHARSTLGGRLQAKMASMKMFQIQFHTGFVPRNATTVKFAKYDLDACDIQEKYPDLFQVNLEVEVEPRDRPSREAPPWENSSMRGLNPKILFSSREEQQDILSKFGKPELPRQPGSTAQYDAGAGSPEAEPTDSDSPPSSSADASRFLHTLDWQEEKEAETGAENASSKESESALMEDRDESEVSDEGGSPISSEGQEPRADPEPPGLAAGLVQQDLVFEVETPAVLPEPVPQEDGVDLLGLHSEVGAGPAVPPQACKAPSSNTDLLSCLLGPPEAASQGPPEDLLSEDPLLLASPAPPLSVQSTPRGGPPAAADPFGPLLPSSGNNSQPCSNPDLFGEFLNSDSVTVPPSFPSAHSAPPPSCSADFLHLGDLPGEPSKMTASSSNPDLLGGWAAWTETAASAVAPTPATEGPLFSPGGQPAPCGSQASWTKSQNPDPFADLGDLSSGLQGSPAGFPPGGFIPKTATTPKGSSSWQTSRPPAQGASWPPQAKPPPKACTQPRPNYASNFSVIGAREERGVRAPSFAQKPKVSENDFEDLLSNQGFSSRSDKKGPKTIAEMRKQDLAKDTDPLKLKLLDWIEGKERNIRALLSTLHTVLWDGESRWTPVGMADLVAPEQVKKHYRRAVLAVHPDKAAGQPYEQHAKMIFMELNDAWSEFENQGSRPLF
As to the kind of experiment: Selectivity interaction (KinomeScan (DiscoverX)) EUB0000618a GAK. Particulars: at 10 µM.

Experiment [4] has as its target Tyrosine-protein kinase JAK2 (Homo sapiens, UniProt O60674). As to the kind of experiment: Selectivity interaction (KinomeScan (DiscoverX)) EUB0000092b JAK2. The note with it: at 10 µM.
Experiment [5] concerns the target Serine/threonine-protein kinase OSR1 (Homo sapiens) (UniProt O95747). As to the kind of experiment: Selectivity interaction (Kinase panel (DSF assay)) EUB0001558a OXSR1.

Molecules are shown by their SMILES.

Tyrosine-protein kinase JAK2, sequence (O60674 whole entry): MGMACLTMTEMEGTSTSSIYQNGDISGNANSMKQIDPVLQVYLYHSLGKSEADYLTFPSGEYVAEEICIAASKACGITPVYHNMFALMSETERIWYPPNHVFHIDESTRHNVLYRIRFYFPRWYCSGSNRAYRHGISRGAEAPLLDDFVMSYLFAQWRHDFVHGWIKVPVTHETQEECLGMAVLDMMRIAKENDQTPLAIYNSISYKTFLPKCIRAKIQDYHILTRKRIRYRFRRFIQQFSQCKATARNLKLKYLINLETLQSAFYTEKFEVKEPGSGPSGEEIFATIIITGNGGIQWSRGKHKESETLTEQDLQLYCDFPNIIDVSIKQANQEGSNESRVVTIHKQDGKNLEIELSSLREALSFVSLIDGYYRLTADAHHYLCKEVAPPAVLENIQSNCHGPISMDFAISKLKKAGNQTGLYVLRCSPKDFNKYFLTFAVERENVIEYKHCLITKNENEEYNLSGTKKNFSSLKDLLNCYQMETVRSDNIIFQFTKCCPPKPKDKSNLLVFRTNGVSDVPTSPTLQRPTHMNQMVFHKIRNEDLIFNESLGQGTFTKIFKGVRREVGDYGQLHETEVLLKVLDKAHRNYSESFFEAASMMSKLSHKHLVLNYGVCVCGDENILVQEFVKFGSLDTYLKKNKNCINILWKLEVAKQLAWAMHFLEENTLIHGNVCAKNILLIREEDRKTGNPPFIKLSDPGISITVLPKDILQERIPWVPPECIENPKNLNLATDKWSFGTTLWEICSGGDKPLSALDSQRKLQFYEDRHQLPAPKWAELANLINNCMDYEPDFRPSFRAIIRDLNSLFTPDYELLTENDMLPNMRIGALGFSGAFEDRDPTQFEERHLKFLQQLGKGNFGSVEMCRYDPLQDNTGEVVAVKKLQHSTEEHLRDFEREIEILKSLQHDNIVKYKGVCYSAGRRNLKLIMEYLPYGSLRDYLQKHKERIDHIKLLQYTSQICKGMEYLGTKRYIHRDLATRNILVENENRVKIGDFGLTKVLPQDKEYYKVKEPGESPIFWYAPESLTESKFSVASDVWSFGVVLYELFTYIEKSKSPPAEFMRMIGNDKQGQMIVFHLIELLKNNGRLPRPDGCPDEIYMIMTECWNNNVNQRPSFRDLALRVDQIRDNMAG
Glycogen synthase kinase-3 alpha, sequence (P49840 2-483 limits assumed): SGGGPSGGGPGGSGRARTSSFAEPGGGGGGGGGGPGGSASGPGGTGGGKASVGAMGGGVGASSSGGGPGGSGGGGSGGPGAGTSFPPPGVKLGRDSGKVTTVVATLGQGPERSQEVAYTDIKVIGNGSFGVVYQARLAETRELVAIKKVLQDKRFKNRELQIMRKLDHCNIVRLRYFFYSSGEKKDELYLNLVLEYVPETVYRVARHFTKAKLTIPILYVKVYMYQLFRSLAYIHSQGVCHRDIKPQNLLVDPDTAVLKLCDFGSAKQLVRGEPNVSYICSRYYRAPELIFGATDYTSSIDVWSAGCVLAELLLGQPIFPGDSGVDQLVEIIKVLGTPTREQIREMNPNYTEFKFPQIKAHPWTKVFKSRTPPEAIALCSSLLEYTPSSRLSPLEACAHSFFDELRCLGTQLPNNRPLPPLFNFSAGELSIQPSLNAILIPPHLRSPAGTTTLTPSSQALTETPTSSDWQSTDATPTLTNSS
Serine/threonine-protein kinase OSR1 (Homo sapiens), sequence (O95747 2-527 limits assumed): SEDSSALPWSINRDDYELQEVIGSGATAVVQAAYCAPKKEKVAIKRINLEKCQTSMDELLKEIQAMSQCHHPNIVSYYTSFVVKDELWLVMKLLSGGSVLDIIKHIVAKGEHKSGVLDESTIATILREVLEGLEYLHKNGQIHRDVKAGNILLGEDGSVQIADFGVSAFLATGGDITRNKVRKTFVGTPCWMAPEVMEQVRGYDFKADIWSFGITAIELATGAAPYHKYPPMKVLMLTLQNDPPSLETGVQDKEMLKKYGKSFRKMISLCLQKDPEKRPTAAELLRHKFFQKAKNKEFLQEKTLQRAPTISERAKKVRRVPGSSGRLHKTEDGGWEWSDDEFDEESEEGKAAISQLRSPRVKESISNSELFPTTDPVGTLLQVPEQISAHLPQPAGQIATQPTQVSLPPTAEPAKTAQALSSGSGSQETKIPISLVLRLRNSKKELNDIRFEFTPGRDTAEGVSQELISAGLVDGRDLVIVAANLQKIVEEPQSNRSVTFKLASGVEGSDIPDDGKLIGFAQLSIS

In turn, `CCN(CC)CCCCNc1ncc2cc(-c3cc(OC)cc(OC)c3)c(NC(=O)NC(C)(C)C)nc2n1` yielded a % of control in experiment [1] of 100%.

Regarding `C=CC(=O)Nc1cc(-n2c(=O)ccc3cnc4ccc(-c5ccc(NS(C)(=O)=O)cc5)cc4c32)ccc1C`, the % of control in experiment [2] (at 1 µM) stood at 100%; in experiment [2] (at 10 µM), 81%. For the compound `O[C@H]1CC[C@H](Nc2ncc3nc(Nc4c(F)cc(F)cc4F)n([C@H]4CCOC4)c3n2)CC1`, in experiment [3], the % of control was found to be 13%. Take `CCC(=O)N1CCN(c2ccc(-n3c(=O)ccc4cnc5ccc(-c6cnc7ccccc7c6)cc5c43)cc2C(F)(F)F)CC1`: the % of control in experiment [4] came out at 65%. For the compound `CC(C)(O)[C@H](F)CN1Cc2cc(NC(=O)c3cnn4cccnc34)c(N3CCOCC3)cc2C1=O`, in experiment [5], the dTM was -0.5 K.
